Tests used:
Assay type in all cases: cell-based, human
[1] = tested on: sorted CD4+ PE and FITC TCRVβ+ TILs; assay: Proliferation of TCRBV-sorted CD4+ TILs (without TCRBV6.1 and TCRBV6.2); settings: sheet 6b
Excerpt: TILs expressing specific TCRBVs were isolated from bulk TILs using a panel of 22 fluorescently labelled TCRBV antibodies that detect 27 different TCRBVs. Twelve TCRBV antibodies were labelled with PE and 10 with FITC (Beckman Coulter). […] After another wash, cells were stained with CD4 (1:100) (APC anti-human CD4, eBioscience), CD8 (1:100) (Pacific blue anti-human CD8, BioLegend), TCRBV-PE (1:25) (Beckman Coulter) and TCRBV-FITC (1:25) (Beckman Coulter) antibodies (Supplementary Table 12) for 30 min. Finally, cells were sorted, seeded at 5 × 10^4 cells per well in T cell medium without h-IL-2 and rested for 1 day before stimulation with 2 × 10^5 cells per well of irradiated autologous PBMCs (45 Gy) and peptide (10 µM).
Two populations of CD4^+ PE-TCRVβ^+ and CD4^+ FITC-TCRVβ^+ were sorted and later mixed together. […] Specific amount of each cytokine/chemokine (pg/ml) was calculated by subtracting the cytokines in the negative control cultures (no peptide control). Source data

[2] = tested on: TCC88; assay: Cytokine and chemokine secretion of TCC88 after peptide stimulation; settings: TCC88 supernatant after peptide stimulation; no peptide control subtracted; Fig. 3e
Excerpt: (§1) Fig. 3 Bacteria-derived and microbiota-derived peptides can stimulate TCC88 as well as the tumour antigen. a, Peptides with the highest predicted stimulatory scores were identified by searching various databases (see Methods). Numbers of unique 10-mer peptides within each database, synthesized peptides, TCC88 stimulatory peptides and the corresponding percentage of stimulatory peptides within each database are shown. […] Cytokine and chemokine secretion of TCC88 was examined and compared upon stimulation with these three different antigens. A specific amount of each cytokine and chemokine (pg ml^−1) was calculated by subtracting the cytokines in the negative control cultures (no peptide control). f, Cytotoxicity of TCC88 against the autologous tumour cell line after stimulation with 2 µM of SIN3A* and HGM3 (data represent the mean percentage of two replicate wells). E:T, effector to target. g, TCC88 was tested with HGM3 (10 µM) or SIN3A* (10 µM) peptides or both together (each 10 µM), and ^3H-thymidine incorporation was measured after 3 days (data represent the mean SI value of three replicate wells ± s.e.m.). Also see Extended Data Figs. 3 and 4. Source data
Supernatants from each experiment were harvested a day before adding thymidine and frozen at −20 °C. Cytokines were measured using ELISA for human IFNγ ELISA MAX (BioLegend), human GM-CSF DuoSet ELISA (R&D Systems) and bead-based assays. A Synergy H1 hybrid multi-mode reader (Agilent) was used to measure the absorbance. The LEGENDplex Multi-analyte Flow Assay kit (BioLegend) is a 13-plex human TH cytokine panel, which includes IFNγ, TNF, IL-2, IL-4, IL-5, IL-6, IL-9, IL-10, IL-13, IL-17A, IL-17F, IL-21 and IL-22. […] LSR Fortessa Flow Cytometer (BD Biosciences) was used to measure cytokines, and data were analysed using FlowJo (Tree Star). The Human XL Cytokine Luminex Performance Assay Fixed Panel (R&D Systems) contains 45 analytes covering a broad range of various chemokines and cytokines.

[3] = tested on: autologous glioblastoma cells; assay: T cell cytotoxicity assay of TCC88 against the autologous tumour cell line; settings: TCC88 stimulated with 2 µM peptide for 72 h; E:T 1:1 and 5:1; 24 h; duplicates; Fig. 3f
Excerpt: as §1, with “Source data […]” for “Source data”

Ac-LLEFNHSLGM-NH2 [HGM3]
Proliferation (SI) of sorted CD4+ TILs ([1]; replicate 1): 1.141 | Proliferation (SI) of sorted CD4+ TILs ([1]; replicate 2): 1.14 | Proliferation (SI) of sorted CD4+ TILs ([1]; replicate 3): 1.525 | CCL20/MIP-3α [2]: 6.47 pg/mL | CD40 Ligand [2]: 1548.01 pg/mL | CXCL1/GROα [2]: 80.23 pg/mL | CXCL2/GROβ [2]: 106.77 pg/mL | CXCL8/IL-8 [2]: 0 pg/mL | CXCL10/IP-10 [2]: 30.99 pg/mL | Flt-3 Ligand [2]: 108.26 pg/mL | Fractalkine [2]: 325.67 pg/mL | GM-CSF [2]: 4861.7 pg/mL | Granzyme B [2]: 2019.57 pg/mL | IFN-α [2]: 2.54 pg/mL | IFN-γ [2]: 781.13 pg/mL | IL-1rα [2]: 2003.66 pg/mL | IL-1α [2]: 12.29 pg/mL | IL-1β [2]: 17.76 pg/mL | IL-2 [2]: 80.09 pg/mL | IL-3 [2]: 109.49 pg/mL | IL-4 [2]: 85.48 pg/mL | IL-5 [2]: 32.99 pg/mL | IL-6 [2]: 151.16 pg/mL | IL-7 [2]: 0.74 pg/mL | IL-10 [2]: 3974.26 pg/mL | IL-12p70 [2]: 26.12 pg/mL | IL-13 [2]: 1591.43 pg/mL | IL-15 [2]: 2.07 pg/mL | IL-17A [2]: 1.97 pg/mL | IL-17E/IL-25 [2]: 0 pg/mL | IL-33 [2]: 17.4 pg/mL | TNF-α [2]: 4132.48 pg/mL | cytotoxic activity against autologous glioblastoma cells (in words) [3]: comparable

Reference: PMC10208956, “Microbial peptides activate tumour-infiltrating lymphocytes in glioblastoma” (Nature, 2023)
